These results are taken from patent publication US20250361526A1, “[…] CYTOMEGALOVIRUS-DERIVED TOOL VIRUS, METHOD OF PRODUCING THE SAME AND APPLICATIONS THEREOF” (WUHAN INSTITUTE OF VIROLOGY, CHINESE ACADEMY OF SCIENCES, priority 2022, published 2025).

The test concerns MCMV. The test can be described thus: In vivo challenge of newborn ICR mice with K181-Nluc/Green, live and organ imaging. Here is the method: To verify whether recombinant virus K181-Nluc/Green can be applied to evaluate potential drugs, neutralizing antibodies, vaccines, etc. against CMV in vivo. The inventors of the present invention carried out in vivo challenge test with ICR mice in the Animal Biosafety Laboratory (ABSL-2). […] Twelve newborn ICR mice were divided into three groups: control group (PBS), placebo group (DMSO) and ganciclovir (GCV) treatment group. By intracerebroventricular injection (I.C.), 1 μl (4×10^5 PFU) K181-Nluc/Green virus solution was injected into the lateral ventricles of newborn mice (P0) to establish the brain infection model of MCMV virus. After 1 day of challenge, 50 mg/kg GCV was given to mice every day until the 7th day after infection, and the Nanoluc substrate (Cat. #N1120, Promega, USA) was intraperitoneally injected on the 1st, 3rd, 5th, 7th, 9th, 11th and 14th days after infection.
In addition, seven days after the mice were infected, one mouse was randomly selected from the placebo (DMSO) group and the GCV treatment group, and Nanoluc substrate was injected intraperitoneally. […] The organs and tissues of mice were taken, and the content of MCMV virus in organs and tissues of mice in different groups was evaluated by fluorescence activity.

As to `Nc1nc(O)c2ncn(COC(CO)CO)c2n1` [GCV, ganciclovir], under “I.C. 4×10^5 PFU K181-Nluc/Green, 50 mg/kg GCV every day, 7 days after infection (FIGS. 14 and 15)”, the “Nluc or GFP signals in different organs of mice” value was “no detection of apparent Nluc or GFP signals”. Where the note is “I.C. K181-Nluc/Green, 50 mg/kg GCV every day until the 7th day”, the “MCMV replication and spreading in vivo” value was “effectively reduce the MCMV replication and spreading in vivo”.
